Source: the supplement of paper PMC4954754
± gives the uncertainty stated by the source.

What was measured:
Conditions in all cases: 18 h
HEK293T-Rex ERSE-FLuc [1] = assay: EC50 for ERSE-FLuc reporter activation
Procedure: (§1)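 Dose-response of hit compounds in HEK293T-Rex cells stably expressing ERSE-FLuc or XBP1-RLuc reporters, 18 hr treatment, 1536-well; luminescence normalised to 500 nM thapsigargin (100%) and DMSO (0%), fitted to give EC50 (M) and maximal activation; '>' marks EC50 above the top tested dose (~17 µM).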

HEK293T-Rex XBP1-RLuc [2] = assay: EC50 for XBP1-RLuc reporter activation
Procedure: as §1

HEK293T-Rex ERSE-FLuc [3] = assay: maximal ERSE-FLuc activation from dose-response fit, relative to thapsigargin (% of thapsigargin); higher = stronger activation
Procedure: as §1

HEK293T-Rex XBP1-RLuc [4] = assay: maximal XBP1-RLuc activation from dose-response fit, relative to thapsigargin (% of thapsigargin); higher = stronger activation
Procedure: as §1

Structure (SMILES)	EC50 for ERSE-FLuc reporter activation (HEK293T-Rex ERSE-FLuc [1]) [µM]	EC50 for XBP1-RLuc reporter activation (HEK293T-Rex XBP1-RLuc [2]) [µM]	maximal ERSE-FLuc activation (HEK293T-Rex ERSE-FLuc [3])	maximal XBP1-RLuc activation (HEK293T-Rex XBP1-RLuc [4])
Fc1ccc(-c2nnc3ccc(N4CCN(c5ccccn5)CC4)nn23)cc1	> 16.9	> 16.9	5.1 ± 4.1	7.7 ± 2.6
Cc1ccc(O)c(NC(=O)c2cc(-c3cccs3)on2)c1	2.78	> 16.9	126 ± 5.9	32.4 ± 6.1
Nc1ccc2sc(-c3cc(Cl)c(N)c(Cl)c3)nc2c1	> 16.9	> 16.9	22 ± 6.1	14.9 ± 1.8
N#Cc1c(NC(=O)c2ccc(Br)cc2)sc2c1CCCC2	> 12.7	> 12.7	17.3 ± 2.2	1.87 ± 3.4
Cc1cccc2c1[nH]c1nc(N/N=C\c3c[nH]c4ccccc34)nnc12	> 16.9	> 16.9	41.7 ± 12	32.4 ± 5.6
CC(C)c1ccc(/C=N\NC(=O)c2ccccc2)cc1	> 16.9	> 16.9	19.3 ± 9.1	17.7 ± 5.7
CCOc1cccc(C(=O)Nc2ccc(Br)cn2)c1	> 15.1	> 15.1	23.3 ± 2.1	4.18 ± 0.09
Cc1ccccc1NC(=O)c1sc2nc(N)c(C#N)c(-c3ccc(C(C)C)cc3)c2c1N	4.01	4.47	169 ± 22	122 ± 17
O=C(Nc1ccccc1O)c1ccc(NS(=O)(=O)c2cccc3cccnc23)cc1	10	> 16.9	85.2 ± 7.5	21.8 ± 6.3
COc1ccc(Nc2nccn3c(-c4ccsc4)cnc23)cn1	> 16.9	> 16.9	23.1 ± 0.89	8.52 ± 2.1
Cn1cccc1/C=C1/SC(=Nc2ccccc2)NC1=O	> 16.7	> 16.7	40.8 ± 2.8	18.6 ± 6.5
COC(=O)c1c(NC(=O)CCl)sc(C(=O)Nc2cccc([N+](=O)[O-])c2)c1C	> 16.9	> 16.9	32.9 ± 4.5	29.6 ± 2.9
Nc1ccc2nc(/C=C/c3ccco3)[nH]c2c1	> 16.9	> 16.9	27.4 ± 2.5	32.3 ± 1.3
COCCNC(=O)c1cc(-c2cccs2)on1	15.5	> 16.9	54.1 ± 14	9.6 ± 3.2
O=C(N/N=C/c1cccc2ccccc12)c1ccc2c(c1)OCO2	> 16.9	> 16.9	25.3 ± 5.6	0.725 ± 0.6
Oc1cccc(/C=N/Nc2ccc(Cl)nn2)c1O	> 17.9	> 17.9	41.7 ± 1.8	19.4 ± 1
CC(C)CC(c1nnnn1C1CCCC1)N1CCN(C(=O)c2ccco2)CC1 (stereo not drawn)	> 16.9	> 16.9	14.3 ± 1.5	8.89 ± 0.66
O=C(Nc1ccc2c(c1)OCCO2)C(=O)Nc1ccccc1Cl	> 16.9	> 16.9	16.5 ± 0.52	2.68 ± 2.8
N#C/C(=C\c1ccc(O)c(O)c1)c1nc2ccccc2[nH]1	> 16.9	> 16.9	37.6 ± 12	25.6 ± 1.6
OCCNc1nc(Nc2ccc(Cl)cc2)nc2ccccc12	6.19	9.68	155 ± 12	87.4 ± 1.1
O=C1c2cc(O)ccc2-c2ccc(O)cc21	8.44	8.87	65.1 ± 18	73.2 ± 6.5
CCN1C(=O)/C(=C\c2ccc(O)cc2O)SC1=S	> 16.9	> 16.9	30.9 ± 10	13.3 ± 1.5
